Measurements as given in patent EP4471048A1, “PEPTIDE INHIBITORS OF INTERLEUKIN-23 RECEPTOR” (Zealand Pharma A/S, priority 2023, dated 2024).

Molecular target: T1, human IL-23R (Homo sapiens, UniProt Q5VWK5)
T1 sequence (Q5VWK5 22-629): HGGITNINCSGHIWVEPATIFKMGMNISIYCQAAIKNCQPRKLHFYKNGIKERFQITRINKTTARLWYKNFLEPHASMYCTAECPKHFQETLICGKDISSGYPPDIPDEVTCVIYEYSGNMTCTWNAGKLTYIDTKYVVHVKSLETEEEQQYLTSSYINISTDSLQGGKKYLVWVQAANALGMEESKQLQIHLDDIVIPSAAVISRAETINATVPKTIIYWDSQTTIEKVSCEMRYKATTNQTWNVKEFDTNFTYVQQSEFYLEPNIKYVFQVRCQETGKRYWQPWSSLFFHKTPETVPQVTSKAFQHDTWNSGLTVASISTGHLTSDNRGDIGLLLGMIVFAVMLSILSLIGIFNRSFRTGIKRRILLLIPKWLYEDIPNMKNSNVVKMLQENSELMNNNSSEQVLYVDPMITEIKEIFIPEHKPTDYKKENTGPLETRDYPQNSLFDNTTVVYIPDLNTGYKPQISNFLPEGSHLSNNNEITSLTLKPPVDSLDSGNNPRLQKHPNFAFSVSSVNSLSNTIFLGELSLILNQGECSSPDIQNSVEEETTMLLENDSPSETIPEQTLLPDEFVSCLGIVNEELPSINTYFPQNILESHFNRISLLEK
Test: biochemical
Settings: for Emax: read-out: % displacement (hIL-23R NIuc)
Excerpt: The compound binding affinity for IL-23R was estimated by the ability of compounds to displace a fluorophore-labelled reference compound from the human IL-23R. The assay principle relies on Bioluminescence Resonance Energy Transfer (BRET) between a fluorophore-labelled reference compound binding to the IL-23R part of a fusion protein consisting of the IL-23R fused to a Nanoluc luciferase enzyme (Nanoluc). The Nanoluc is placed in the N-terminus in close proximity to the binding domain of the ligand. Upon close proximity between the fluorophore of the fluorophore-labelled compound and the Nanoluc of the fusion protein, bioluminescence energy generated from conversion of a Nanoluc substrate, is transferred to the fluorophore resulting in an increase in BRET. In presence of an unlabelled compound, the unlabelled compound displaces the fluorophore-labelled peptide from its binding site resulting in a decrease in BRET. The concentration for which half of the fluorophore-labelled peptide is displaced by the unlabelled compound depends on the affinity of the compound for the IL-23R, and is termed the IC50 concentration.
The plasmid also contained a gene to confer resistance for the antibiotic hygromycin. A cell line stably expressing the Nluc-IL23R fusion protein was generated by transfection of HEK293 cells with the expression plasmid and selected with hygromycin for 3 weeks in Growth medium consisting of DMEM w/ Glutamax-I containing, 10% V/V FBS, 1% V/V P/S, 1 mM Sodium Pyruvate, and 1X NEAA, and 0.3 mg/mL hygromycin. The remaining cells were propagated and considered a stable expressing Nluc-IL23R fusion protein pool clone.
Cells expressing the Nluc-IL23R fusion protein were expanded in Growth medium and membranes prepared by homogenization of a cell pellet from 18 T175 flasks (4 °C in subsequent steps). The cell pellet was lysed Tris 10 mM, 7.5, 1 mM EDTA and protease inhibitors (Complete, Roche) and homogenized using a 15 mL glass-dounce by 50 strokes. The homogenate was spun at spin @1500 rpm for 10 min, the supernatant transferred to SV-34 tubes and spun at 40000g for 20 min at 4 °C to pellet the crude membranes. The supernatant was then removed, the pellet resuspended in 5 mL buffer containing 50 mM HEPES pH 7.4, 5 mM EGTA, and 5 mM MgCl2, and homogenized. Aliquots of the resuspended and homogenized membranes containing the Nluc-IL23R fusion protein were stored at -80 °C until use.
The plate was sealed with light impermeable plate seals, and incubated on an orbital shaker 400 rpm for 2 hours at room temperature. To determine the BRET ratio, the plate seal was removed and 25 µL of the Nanoluc substrate (Promega N1572) diluted 1:500 was added to each well and incubated for 1-2 minutes on an orbital shaker at 400 rpm. […] The BRET ratio was calculated as the fluorescence from the TAMRA/nanoluc bioluminescence.
Compound potency (IC50) and maximal displacement (% displacement) were estimated by computer-aided curve fitting using a 4-parameter logistic (4PL) non-linear model. […]
In this application, the inventors provide the data as IC50 values.

## CCCCc1ccc(C[C@@H]2NC(=O)[C@@H]3CCC(=O)N[C@@H](CCCCNC(=O)CC[C@@H](C(=O)N[C@@H](CCN)C(=O)N[C@@H](Cc4cccnc4)C(=O)NC)NC(=O)[C@](C)(CC(C)C)NC(=O)[C@H](Cc4ccc5ccccc5c4)NC2=O)C(=O)N[C@@H]([C@@H](C)CC)C(=O)N[C@@H](C(C)C)C(=O)N[C@@H](Cc2c[nH]c4ccccc24)C(=O)N[C@@H](CCC(N)=O)C(=O)N3)cc1 [Compound 33, K(1c)(6c)^†IVWQE(6c)[F(4-Bu)][2-Nal][2-Me-Leu]E(1c)[Dab][3-(3-Pyridyl)-Ala]-[NHMe]]
  IC50: 0.76 nM
  Emax: 102%

## CC[C@H](C)[C@@H]1NC(=O)[C@@H]2CCCCNC(=O)CC[C@@H](C(=O)N[C@@H](CCN)C(=O)N[C@@H](Cc3cccnc3)C(=O)NC)NC(=O)[C@](C)(CC(C)C)NC(=O)[C@H](Cc3ccc4ccccc4c3)NC(=O)[C@H](Cc3ccc(OCc4ccccc4)cc3)NC(=O)[C@H](CCC(=O)N2)NC(=O)[C@H](CCC(N)=O)NC(=O)[C@H](Cc2c[nH]c3ccccc23)NC(=O)[C@H](C(C)C)NC1=O [Compound 34, K(1c)(6c)^†IVWQE(6c)[Y(Bn)][2-Nal][2-Me-Leu]E(1c)[Dab][3-(3-Pyridyl)-Ala]-[NHMe]]
  IC50: 0.62 nM
  Emax: 100%

## CC[C@H](C)[C@@H]1NC(=O)[C@@H]2CCCCNC(=O)CC[C@@H](C(=O)N[C@@H](CCN)C(=O)N[C@@H](Cc3cccnc3)C(=O)NC)NC(=O)[C@](C)(CC(C)C)NC(=O)[C@H](Cc3ccc4ccccc4c3)NC(=O)[C@H](Cc3ccc(OC)cc3)NC(=O)[C@H](CCC(=O)N2)NC(=O)[C@H](CCC(N)=O)NC(=O)[C@H](Cc2c[nH]c3ccccc23)NC(=O)[C@H](C(C)C)NC1=O [Compound 35, K(1c)(6c)^†IVWQE(6c)[Y(Me)][2-Nal][2-Me-Leu]E(1c)[Dab][3-(3-Pyridyl)-Ala]-[NHMe]]
  IC50: 0.11 nM
  Emax: 98%

## CNC(=O)[C@H](Cc1cccnc1)NC(=O)[C@H](CCN)NC(=O)[C@@H]1CCC(=O)NCC[C@@H]2NC(=O)CC[C@H](NC(=O)[C@H](CCC(N)=O)NC(=O)[C@H](Cc3c[nH]c4ccccc34)NC(=O)[C@H]([C@@H](C)O)NC2=O)C(=O)N[C@@H](Cc2ccc(OCCN)cc2)C(=O)N[C@@H](Cc2ccc3ccccc3c2)C(=O)N[C@@](C)(CC(C)C)C(=O)N1 [Compound 37, [Dab](1c)(6c)^†TWQE(6c)[Y(2-aminoethoxy)][2-Nal][2-Me-Leu]E(1c)[Dab][3-(3-Pyridyl)-Ala]-[NHMe]]
  IC50: 1.4 nM
  Emax: 99%

## CNC(=O)[C@H](Cc1cccnc1)NC(=O)[C@H](CCN)NC(=O)[C@@H]1CCC(=O)NCCCC[C@@H]2NC(=O)CCC[C@H](NC(=O)[C@H](CCC(N)=O)NC(=O)[C@H](Cc3c[nH]c4ccccc34)NC(=O)[C@H]([C@@H](C)O)NC2=O)C(=O)N[C@@H](Cc2ccc(OCCN)cc2)C(=O)N[C@@H](Cc2ccc3ccccc3c2)C(=O)N[C@@](C)(CC(C)C)C(=O)N1 [Compound 38, K(1c)(6c)^†TWQ[hGlu](6c)[Y(2-aminoethoxy)][2-Nal][2-Me-Leu]E(1c)[Dab][3-(3-Pyridyl)-Ala]-[NHMe]]
  IC50: 1.5 nM
  Emax: 101%

## CNC(=O)[C@H](Cc1cccnc1)NC(=O)[C@H](CCN)NC(=O)[C@@H]1CCCNC(=O)CC[C@@H]2NC(=O)CC[C@H](NC(=O)[C@H](CCC(N)=O)NC(=O)[C@H](Cc3c[nH]c4ccccc34)NC(=O)[C@H]([C@@H](C)O)NC2=O)C(=O)N[C@@H](Cc2ccc(OCCN)cc2)C(=O)N[C@@H](Cc2ccc3ccccc3c2)C(=O)N[C@@](C)(CC(C)C)C(=O)N1 [Compound 40, E(1c)(6c)^†TWQE(6c)[Y(2-aminoethoxy)][2-Nal][2-Me-Leu][Orn](1c)[Dab][3-(3-Pyridyl)-Ala]-[NHMe]]
  Emax: 100%

## CNC(=O)[C@H](Cc1cccnc1)NC(=O)[C@H](CCN)NC(=O)[C@@H]1CCC(=O)NCCCC[C@H]2C(=O)N[C@@H]([C@@H](C)O)C(=O)N[C@@H](Cc3c[nH]c4ccccc34)C(=O)N[C@@H](CCC(N)=O)C(=O)N[C@@H](Cc3cn2nn3)C(=O)N[C@@H](Cc2ccc(OCCN)cc2)C(=O)N[C@@H](Cc2ccc3ccccc3c2)C(=O)N[C@@](C)(CC(C)C)C(=O)N1 [Compound 41, [(N3)-K](1c)(6g)^†TWQ[Pra](6g)[Y(2-aminoethoxy)][2-Nal][2-Me-Leu]E(1c)[Dab][3-(3-Pyridyl)-Ala]-[NHMe]]
  IC50: 1.5 nM
  Emax: 98%

## CNC(=O)[C@H](Cc1cccnc1)NC(=O)[C@H](CCN)NC(=O)[C@@H]1CCC(=O)NCCCC[C@@H]2C(=O)N[C@@H]([C@@H](C)O)C(=O)N[C@@H](Cc3c[nH]c4ccccc34)C(=O)N[C@@H](CCC(N)=O)C(=O)N[C@@H](CCc3cn2nn3)C(=O)N[C@@H](Cc2ccc(OCCN)cc2)C(=O)N[C@@H](Cc2ccc3ccccc3c2)C(=O)N[C@@](C)(CC(C)C)C(=O)N1 [Compound 42, [{d}(N3)-K](1c)(6g)^†TWQ[Hpg](6g)[Y(2-aminoethoxy)][2-Nal][2-Me-Leu]E(1c)[Dab][3-(3-Pyridyl)-Ala]-[NHMe]]
  IC50: 1.9 nM
  Emax: 96%

## COc1ccc(C[C@@H]2NC(=O)[C@@H]3CCC(=O)N[C@@H](CCCCNC(=O)CC[C@@H](C(=O)N[C@@H](CCCCNC(=O)c4ccccn4)C(N)=O)NC(=O)[C@](C)(CC(C)C)NC(=O)[C@H](Cc4ccc5ccccc5c4)NC2=O)C(=O)N[C@@H]([C@@H](C)O)C(=O)N[C@@H](C(C)C)C(=O)N[C@@H](Cc2c[nH]c4ccccc24)C(=O)N[C@@H](CCC(N)=O)C(=O)N3)cc1 [Compound 47, K(1c)(6c)^†TVWQE(6c)[Y(Me)][2-Nal][2-Me-Leu]E(1c)[K(piconilate)]-[NH2]]
  IC50: 730 nM
  Emax: 99%

## COc1ccc(C[C@@H]2NC(=O)[C@@H]3CCC(=O)N[C@@H](CCCCNC(=O)CC[C@@H](C(=O)N[C@@H](CCCCNC(=O)Cc4ccccn4)C(N)=O)NC(=O)[C@](C)(CC(C)C)NC(=O)[C@H](Cc4ccc5ccccc5c4)NC2=O)C(=O)N[C@@H]([C@@H](C)O)C(=O)N[C@@H](C(C)C)C(=O)N[C@@H](Cc2c[nH]c4ccccc24)C(=O)N[C@@H](CCC(N)=O)C(=O)N3)cc1 [Compound 48, K(1c)(6c)^†TVWQE(6c)[Y(Me)][2-Nal][2-Me-Leu]E(1c)[K(2-pyridylacetyl)]-[NH2]]
  IC50: 290 nM
  Emax: 101%

## COc1ccc(C[C@@H]2NC(=O)[C@@H]3CCC(=O)N[C@@H](CCCCNC(=O)CC[C@@H](C(=O)N[C@@H](CCCCNC(=O)CCc4ccccn4)C(N)=O)NC(=O)[C@](C)(CC(C)C)NC(=O)[C@H](Cc4ccc5ccccc5c4)NC2=O)C(=O)N[C@@H]([C@@H](C)O)C(=O)N[C@@H](C(C)C)C(=O)N[C@@H](Cc2c[nH]c4ccccc24)C(=O)N[C@@H](CCC(N)=O)C(=O)N3)cc1 [Compound 49, K(1c)(6c)^†TVWQE(6c)[Y(Me)][2-Nal][2-Me-Leu]E(1c)[K(2-pyridylpropionyl)]-[NH2]]
  IC50: 820 nM
  Emax: 96%

## COc1ccc(C[C@@H]2NC(=O)[C@@H]3CCC(=O)N[C@@H](CCCCNC(=O)CC[C@@H](C(=O)N[C@@H](CCCCNC(=O)Cc4cccnc4)C(N)=O)NC(=O)[C@](C)(CC(C)C)NC(=O)[C@H](Cc4ccc5ccccc5c4)NC2=O)C(=O)N[C@@H]([C@@H](C)O)C(=O)N[C@@H](C(C)C)C(=O)N[C@@H](Cc2c[nH]c4ccccc24)C(=O)N[C@@H](CCC(N)=O)C(=O)N3)cc1 [Compound 51, K(1c)(6c)^†TVWQE(6c)[Y(Me)][2-Nal][2-Me-Leu]E(1c)[K(3-pyridylacetyl)]-[NH2]]
  IC50: 300 nM
  Emax: 102%
